These results are taken from patent publication US7888363B2, “Viral polymerase inhibitors” (Boehringer Ingelheim International GmbH, priority 2003, dated 2011).

Bounds are passed on as bounds.

hepatitis C virus RNA dependant polymerase (NS5B), sequence (P26663 2420-3010): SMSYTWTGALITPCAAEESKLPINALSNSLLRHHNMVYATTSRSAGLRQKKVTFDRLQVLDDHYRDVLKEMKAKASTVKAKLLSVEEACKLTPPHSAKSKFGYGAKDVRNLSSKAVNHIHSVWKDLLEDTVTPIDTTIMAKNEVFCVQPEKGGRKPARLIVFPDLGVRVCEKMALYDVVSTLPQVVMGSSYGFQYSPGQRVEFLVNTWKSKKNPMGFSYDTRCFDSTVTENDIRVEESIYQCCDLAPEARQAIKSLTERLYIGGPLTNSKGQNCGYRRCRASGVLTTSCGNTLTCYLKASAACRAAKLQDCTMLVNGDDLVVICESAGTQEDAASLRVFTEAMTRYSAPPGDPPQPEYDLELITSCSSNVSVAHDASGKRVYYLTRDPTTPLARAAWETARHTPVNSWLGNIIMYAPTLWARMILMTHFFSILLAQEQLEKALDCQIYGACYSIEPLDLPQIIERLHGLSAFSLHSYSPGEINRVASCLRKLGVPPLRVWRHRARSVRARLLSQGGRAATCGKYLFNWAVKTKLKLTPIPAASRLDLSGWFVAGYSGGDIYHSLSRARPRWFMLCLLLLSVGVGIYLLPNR

For the first assay, the target named is hepatitis C virus RNA dependant polymerase (NS5B) (Hepatitis C virus genotype 1b, UniProt P26663). The experiment in a line: Inhibition of NS5B RNA dependent RNA polymerase activity. It counts as biochemical. The following applies: Table 4; class ranges. On the procedure:
A suitable assay is described in the examples.
Inhibition of NS5B RNA Dependent RNA Polymerase Activity
The compounds of the invention were tested for inhibitory activity against the hepatitis C virus RNA dependant polymerase (NS5B), according to protocol described in WO 03/010141
`COc1cc(CNC(=O)c2ccc3c(C4CCCCC4)c(-c4ccoc4)n(CC(=O)N4CCOCC4)c3c2)ccc1O` [Example 4064] showed an IC50 of 200 to 1000 nM.

`O=C(NC(=O)c1ccc2c(C3CCCCC3)c(-c3ccoc3)n(CC(=O)N3CCOCC3)c2c1)c1ccccc1` [Example 4065] came in with a concentration for half-maximal inhibition (IC50) of 1000 to 10000 nM. Same read-out and setting: the value for `O=C(O)C=Cc1ccc2nc(C3(NC(=O)c4ccc5c(C6CCCCC6)c(-c6ccoc6)n(CC(=O)N6CCOCC6)c5c4)CCC3)[nH]c2c1` [Example 4067] was less than 200 nM; that for `CN1CCC(NC(=O)c2ccc3c(C4CCCC4)c(-c4ccoc4)n(CC(=O)N4CCOCC4)c3c2)(c2nc3ccc(C=CC(=O)O)cc3[nH]2)C1` (centres unmarked) [Example 4068] was less than 200 nM. Still for that read-out and setting: the figure for `CN1CCC(NC(=O)c2ccc3c(C4CCCCC4)c(-c4ccoc4)n(CC(=O)N4CCOCC4)c3c2)(c2nc3ccc(C=CC(=O)O)cc3[nH]2)C1` (centres unmarked) [Example 4069] is less than 200 nM. Same read-out and setting: the figure for `O=C(O)C=Cc1ccc2nc(C3(NC(=O)c4ccc5c(C6CCCC6)c(-c6ccoc6)n(CC(=O)N6CCOCC6)c5c4)CCC3)[nH]c2c1` [Example 4070] is less than 200 nM.

`C#CC1(NC(=O)c2ccc3c(C4CCCCC4)c(-c4ccoc4)n(CC(=O)N4CCOCC4)c3c2)CCCCC1` [Example 4071] gave an IC50 of 200 to 1000 nM. Still for that read-out and setting: the value for `NC(=O)C1(NC(=O)c2ccc3c(C4CCCCC4)c(-c4ccoc4)n(CC(=O)N4CCOCC4)c3c2)CCCC1` [Example 4072] was less than 200 nM.

`COC(=O)C1(NC(=O)c2ccc3c(C4CCCCC4)c(-c4ccoc4)n(CC(=O)N4CCOCC4)c3c2)CCCC1` [Example 4073] came in with an IC50 of 200 to 1000 nM. Same read-out and setting: the value for `O=C(NC1(C(=O)O)CCCC1)c1ccc2c(C3CCCCC3)c(-c3ccoc3)n(CC(=O)N3CCOCC3)c2c1` [Example 4074] was 200 to 1000 nM; that for `COC(=O)C(C)(C)NC(=O)c1ccc2c(C3CCCCC3)c(-c3ccoc3)n(CC(=O)N3CCOCC3)c2c1` [Example 4075] was 200 to 1000 nM; that for `COC(=O)C1(NC(=O)c2ccc3c(C4CCCCC4)c(-c4ccoc4)n(CC(=O)N4CCOCC4)c3c2)CCCCC1` [Example 4076] was 200 to 1000 nM.

For the molecule `CC(C)(NC(=O)c1ccc2c(C3CCCCC3)c(-c3ccoc3)n(CC(=O)N3CCOCC3)c2c1)C(N)=O` [Example 4077], the IC50 was less than 200 nM. On the same count and under the same terms, the value for `O=C(NC1(C(=O)O)CCCCC1)c1ccc2c(C3CCCCC3)c(-c3ccoc3)n(CC(=O)N3CCOCC3)c2c1` [Example 4078] was 200 to 1000 nM; that for `NC(=O)C1(NC(=O)c2ccc3c(C4CCCCC4)c(-c4ccoc4)n(CC(=O)N4CCOCC4)c3c2)CCCCC1` [Example 4079] was 200 to 1000 nM. Still for that read-out and setting: the value for `COC(=O)C1(NC(=O)c2ccc3c(C4CCCCC4)c(-c4ccoc4)n(CC(=O)N4CCOCC4)c3c2)COCOC1` [Example 4080] was 200 to 1000 nM; that for `CC(C)(NC(=O)c1ccc2c(C3CCCCC3)c(-c3ccoc3)n(CC(=O)N3CCC(N4CCCC4)CC3)c2c1)C(N)=O` [Example 4081] was less than 200 nM; that for `Cn1c(C2(NC(=O)c3ccc4c(C5CCCCC5)c(-c5ccoc5)n(CC(=O)N5CCOCC5)c4c3)CCC2)nc2ccc(C=CC(=O)O)cc21` [Example 4082] was less than 200 nM. Still for that read-out and setting: the value for `O=C(NC1(C(=O)O)COCOC1)c1ccc2c(C3CCCCC3)c(-c3ccoc3)n(CC(=O)N3CCOCC3)c2c1` [Example 4083] was less than 200 nM. `CNC(=O)C(C)(C)NC(=O)c1ccc2c(C3CCCCC3)c(-c3ccoc3)n(CC(=O)N3CCC(N4CCCC4)CC3)c2c1` [Example 4084] displayed a concentration for half-maximal inhibition (IC50) of less than 200 nM. On the same count and under the same terms, the value for `NC(=O)C1(NC(=O)c2ccc3c(C4CCCCC4)c(-c4ccoc4)n(CC(=O)N4CCOCC4)c3c2)COCOC1` [Example 4085] was less than 200 nM; that for `CN(C)C(=O)C(C)(C)NC(=O)c1ccc2c(C3CCCCC3)c(-c3ccoc3)n(CC(=O)N3CCC(N4CCCC4)CC3)c2c1` [Example 4086] was less than 200 nM. In turn, `CC(C)(NC(=O)c1ccc2c(C3CCCCC3)c(-c3ccoc3)n(CC(=O)N3CCOCC3)c2c1)C(=O)O` [Example 4087] returned an IC50 of less than 200 nM. On the same count and under the same terms, the value for `Cc1c(C2(NC(=O)c3ccc4c(C5CCCCC5)c(-c5ccoc5)n(CC(=O)N5CCOCC5)c4c3)CCC2)oc2ccc(C(=O)O)cc12` [Example 4088] was less than 200 nM; that for `CNC(=O)C1(NC(=O)c2ccc3c(C4CCCCC4)c(-c4ccoc4)n(CC(=O)N4CCC(N5CCCC5)CC4)c3c2)CCC1` [Example 4089] was less than 200 nM.

As for `N#CC1(NC(=O)c2ccc3c(C4CCCCC4)c(-c4ccoc4)n(CC(=O)N4CCC(N5CCCC5)CC4)c3c2)CCC1` [Example 4090], the IC50 was less than 200 nM. Same read-out and setting: the figure for `CNC(=O)C1(NC(=O)c2ccc3c(C4CCCCC4)c(-c4ccoc4)n(CC(=O)N4CCOCC4)c3c2)CCC1` [Example 4091] is 200 to 1000 nM.

Molecule `NC(=O)C1(NC(=O)c2ccc3c(C4CCCCC4)c(-c4ccoc4)n(CC(=O)N4CCOCC4)c3c2)CCC1` [Example 4092] had an IC50 of less than 200 nM. Molecule `CN(C)C(=O)C1(NC(=O)c2ccc3c(C4CCCCC4)c(-c4ccoc4)n(CC(=O)N4CCOCC4)c3c2)CCC1` [Example 4093] yielded an IC50 of less than 200 nM. Same read-out and setting: the figure for `CNC(=O)C1(NC(=O)c2ccc3c(C4CCCCC4)c(-c4ccoc4)n(CC(=O)N4CCC(N5CCCC5)CC4)c3c2)CCCC1` [Example 4094] is less than 200 nM; for `CN(C)C(=O)C1(NC(=O)c2ccc3c(C4CCCCC4)c(-c4ccoc4)n(CC(=O)N4CCC(N5CCCC5)CC4)c3c2)CCCC1` [Example 4095] it is less than 200 nM; for `CNC(=O)C1(NC(=O)c2ccc3c(C4CCCCC4)c(-c4ccoc4)n(CC(=O)N4CCOCC4)c3c2)CCCC1` [Example 4096] it is less than 200 nM. On the same count and under the same terms, the value for `CN(C)C(=O)C1(NC(=O)c2ccc3c(C4CCCCC4)c(-c4ccoc4)n(CC(=O)N4CCOCC4)c3c2)CCCC1` [Example 4097] was less than 200 nM; that for `Cc1nc(C2(NC(=O)c3ccc4c(C5CCCCC5)c(-c5ccoc5)n(CC(=O)N5CCOCC5)c4c3)CCC2)cs1` [Example 4098] was 200 to 1000 nM. Still for that read-out and setting: the value for `Cc1nc(C2(NC(=O)c3ccc4c(C5CCCCC5)c(-c5ccoc5)n(CC(=O)N5CCC(N6CCCC6)CC5)c4c3)CCC2)cs1` [Example 4099] was less than 200 nM; that for `Cn1c(C2(NC(=O)c3ccc4c(C5CCCCC5)c(-c5ccoc5)n(CC(N)=O)c4c3)CCC2)nc2ccc(C=CC(=O)O)cc21` [Example 4100] was less than 200 nM. Molecule `O=C(NC1(c2csc(Nc3ccccc3)n2)CCC1)c1ccc2c(C3CCCCC3)c(-c3ccoc3)n(CC(=O)N3CCC(N4CCCC4)CC3)c2c1` [Example 4101] registered an IC50 of 200 to 1000 nM. `CC(=O)Nc1nc(C2(NC(=O)c3ccc4c(C5CCCCC5)c(-c5ccoc5)n(CC(=O)N5CCC(N6CCCC6)CC5)c4c3)CCC2)cs1` [Example 4102] returned an IC50 of less than 200 nM. The molecule `CNc1nc(C2(NC(=O)c3ccc4c(C5CCCCC5)c(-c5ccoc5)n(CC(=O)N5CCC(N6CCCC6)CC5)c4c3)CCC2)cs1` [Example 4103] displayed an IC50 of less than 200 nM.

Take `O=C(NC1(c2csc(Cc3ccccc3)n2)CCC1)c1ccc2c(C3CCCCC3)c(-c3ccoc3)n(CC(=O)N3CCC(N4CCCC4)CC3)c2c1` [Example 4104]: the half-maximal inhibitory concentration (IC50) fell in the range of 1000 to 10000 nM. Same read-out and setting: the value for `CC(C)Nc1nc(C2(NC(=O)c3ccc4c(C5CCCCC5)c(-c5ccoc5)n(CC(=O)N5CCC(N6CCCC6)CC5)c4c3)CCC2)cs1` [Example 4105] was 200 to 1000 nM; that for `CCc1nc(C2(NC(=O)c3ccc4c(C5CCCCC5)c(-c5ccoc5)n(CC(=O)N5CCC(N6CCCC6)CC5)c4c3)CCC2)cs1` [Example 4107] was less than 200 nM; that for `CCOC(=O)c1nc(C2(NC(=O)c3ccc4c(C5CCCCC5)c(-c5ccoc5)n(CC(=O)N5CCC(N6CCCC6)CC5)c4c3)CCC2)cs1` [Example 4108] was 200 to 1000 nM.

As for `CS(=O)(=O)NC(=O)c1ccc2c(C3CCCCC3)c(-c3ccoc3)n(CC(=O)N3CCC(N4CCCC4)CC3)c2c1` [Example 4109], the IC50 is less than 200 nM. `O=C(NS(=O)(=O)c1ccccc1)c1ccc2c(C3CCCCC3)c(-c3ccoc3)n(CC(=O)N3CCC(N4CCCC4)CC3)c2c1` [Example 4110] showed a 50% inhibitory concentration (IC50) of less than 200 nM.

The assay is the same for the next values; noted with them: Table 5; HCV NS5B polymerase.
`O=C(O)c1ccc2c(C3CCCCC3)c(-c3ccoc3)n(CC(=S)N3CCOCC3)c2c1` [Example 5001] registered a concentration for half-maximal inhibition (IC50) of 200 to 1000 nM. In the case of `O=C(O)c1ccc2c(C3CCCCC3)c(-c3ccoc3)n(CCC(=O)N3CCOCC3)c2c1` [Example 5002], the IC50 lay in the range of 200 to 1000 nM. On the same count and under the same terms, the figure for `CN(C)C(=O)CCn1c(-c2ccoc2)c(C2CCCCC2)c2ccc(C(=O)O)cc21` [Example 5003] is 1000 to 10000 nM. Same read-out and setting: the value for `C=CCn1c(-c2ccoc2)c(C2CCCCC2)c2ccc(C(=O)O)cc21` [Example 5004] was 200 to 1000 nM; that for `C/C=C/Cn1c(-c2ccoc2)c(C2CCCCC2)c2ccc(C(=O)O)cc21` [Example 5005] was 1000 to 10000 nM.

For `CC(C)=CCn1c(-c2ccoc2)c(C2CCCCC2)c2ccc(C(=O)O)cc21` [Example 5006], the concentration for half-maximal inhibition (IC50) lay within 1000 to 10000 nM. Consider `C=C(C)Cn1c(-c2ccoc2)c(C2CCCCC2)c2ccc(C(=O)O)cc21` [Example 5007], for which the IC50 fell in the range of 200 to 1000 nM.

In turn, `CC(C(=O)N1CCOCC1)n1c(-c2ccoc2)c(C2CCCCC2)c2ccc(C(=O)O)cc21` (centres unmarked) [Example 5008] displayed an IC50 of 1000 to 10000 nM. Still for that read-out and setting: the figure for `CC(C(=O)N(C)C)n1c(-c2ccoc2)c(C2CCCCC2)c2ccc(C(=O)O)cc21` (centres unmarked) [Example 5009] is 1000 to 10000 nM.

Staying with this assay, now noted: Table 6; HCV NS5B polymerase.
Turning to `O=C(O)c1ccc2c(c1)c(C1CCCCC1)c(-c1ccoc1)n2CC(=O)N1CCOCC1` [Example 6001], the IC50 was 200 to 1000 nM. `O=C(O)c1ccc2c(c1)c(C1CCCCC1)c(-c1ccoc1)n2CC(=O)N1CCC(N2CCCC2)CC1` [Example 6002] displayed an IC50 of less than 200 nM. Same read-out and setting: the figure for `CN(C)C(=O)Cn1c(-c2ccoc2)c(C2CCCCC2)c2cc(C(=O)O)ccc21` [Example 6003] is 200 to 1000 nM.

The same assay, now with this note: Table 7; class ranges.
As to `COc1cc2c(C3CCCCC3)c(-c3ccoc3)n(CC(=O)N3CCOCC3)c2cc1C(=O)O` [Example 7002], the IC50 fell in the range of 200 to 1000 nM. On the same count and under the same terms, the figure for `COc1cc2c(C3CCCCC3)c(-c3ccoc3)n(CC(=O)N3CCC(N4CCCC4)CC3)c2cc1C(=O)O` [Example 7003] is 200 to 1000 nM.

A word on the IC50: it is the concentration that inhibits the measured activity by half. Lower therefore signals inhibition by little substance.
